Results published in patent publication US10174011B2, “Heterocyclic compounds, process for preparation of the same and use thereof” (SHANGHAI INSTITUTE OF MATERIA MEDICA, CHINESE ACADEMY OF …, priority 2014, dated 2019).
Structures can show the parent of a compound that is named as a salt. Where two headings read alike, the source gives them in different places.

Columns and labels:
[1] = biological target: human recombinant 5-HT2A receptor (Homo sapiens (Human), UniProt P28223); assay: 5-HT2A receptor antagonism activity test (FLIPR Calcium 5 Assay Kit); settings: read-out: 5-HT2A receptor antagonism (IC50, mol/L)
Sequence of human recombinant 5-HT2A receptor (P28223 whole entry): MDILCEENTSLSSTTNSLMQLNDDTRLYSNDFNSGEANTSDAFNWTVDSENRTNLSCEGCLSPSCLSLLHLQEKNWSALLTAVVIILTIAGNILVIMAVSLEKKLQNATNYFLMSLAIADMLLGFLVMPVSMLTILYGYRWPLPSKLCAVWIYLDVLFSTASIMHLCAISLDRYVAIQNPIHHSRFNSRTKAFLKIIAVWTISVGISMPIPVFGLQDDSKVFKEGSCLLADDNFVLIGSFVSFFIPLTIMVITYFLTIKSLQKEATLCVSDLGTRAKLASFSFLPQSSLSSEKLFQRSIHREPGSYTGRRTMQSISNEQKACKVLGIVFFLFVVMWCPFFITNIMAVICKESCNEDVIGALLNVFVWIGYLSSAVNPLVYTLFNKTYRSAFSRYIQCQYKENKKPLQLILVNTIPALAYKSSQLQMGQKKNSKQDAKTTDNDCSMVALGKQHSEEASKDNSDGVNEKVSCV

[2] = biological target: human recombinant 5-HT1A receptor (Homo sapiens (Human), UniProt P08908); assay: 5-HT1A receptor agonism activity test (inhibition of cAMP production, LANCE cAMP 384 Kit); assay type: cell-based; settings: HEK293 cells expressing human recombinant 5-HT1A receptor; test concentration 0.1 nM-10000 nM; read-out: 5-HT1A receptor agonism (EC50, mol/L)
Sequence of human recombinant 5-HT1A receptor (P08908 whole entry): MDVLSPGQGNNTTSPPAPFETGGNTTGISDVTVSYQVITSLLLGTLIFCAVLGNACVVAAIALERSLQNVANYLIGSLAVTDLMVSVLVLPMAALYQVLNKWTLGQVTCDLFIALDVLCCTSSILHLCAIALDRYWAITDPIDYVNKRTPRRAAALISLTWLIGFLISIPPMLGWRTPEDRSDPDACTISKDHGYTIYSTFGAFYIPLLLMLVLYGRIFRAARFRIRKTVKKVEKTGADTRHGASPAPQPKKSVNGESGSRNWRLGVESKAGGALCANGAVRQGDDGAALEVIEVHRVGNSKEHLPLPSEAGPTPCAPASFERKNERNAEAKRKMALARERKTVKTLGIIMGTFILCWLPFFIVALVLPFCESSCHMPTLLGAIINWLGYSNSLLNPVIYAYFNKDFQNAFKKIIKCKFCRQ
Text: Pharmacological Test 1) 5-HT1A Receptor Agonism Activity Test

[3] = biological target: human recombinant D2 receptor (Homo sapiens (Human), UniProt P14416); assay: D2 receptor antagonism activity test (inhibition of dopamine-induced decrease of cAMP production, LANCE cAMP 384 Kit); settings: read-out: D2 receptor antagonism (IC50, mol/L), HEK293 cells expressing human recombinant D2 receptor, 0.1 nM-10000 nM
Sequence of human recombinant D2 receptor (P14416 whole entry): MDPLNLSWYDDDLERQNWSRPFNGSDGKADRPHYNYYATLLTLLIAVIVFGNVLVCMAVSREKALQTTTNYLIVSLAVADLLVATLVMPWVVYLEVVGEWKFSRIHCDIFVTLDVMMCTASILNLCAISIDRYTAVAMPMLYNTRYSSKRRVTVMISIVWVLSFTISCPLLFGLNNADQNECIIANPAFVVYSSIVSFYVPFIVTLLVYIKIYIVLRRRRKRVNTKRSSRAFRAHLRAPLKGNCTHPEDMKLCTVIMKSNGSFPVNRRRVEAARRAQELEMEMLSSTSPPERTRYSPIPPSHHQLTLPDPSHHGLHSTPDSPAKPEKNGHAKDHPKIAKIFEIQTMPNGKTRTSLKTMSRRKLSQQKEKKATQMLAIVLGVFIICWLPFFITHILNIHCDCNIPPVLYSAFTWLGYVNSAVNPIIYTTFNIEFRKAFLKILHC

[4] = CHO-K1 cells expressing human recombinant 5-HT2A receptor, α-methyl-5-hydroxytryptamine 300 nM, 0.1 nM-10000 nM

SMILES	IC50 [1, 4]	EC50 [2]	IC50 [3]	IC50 [1]
O=C1Cc2cc(CCN3CCN(c4cccc5c4CCS5)CC3)c(Cl)cc2N1 [Compound of example 1, 6-chloro-5-(2-(4-(2,3-dihydrobenzo[b]thiophen-4-yl)piperazin-1-yl)ethyl)indolin-2-one]	227 nM	3.31 nM	56.9 nM	
O=c1ccc2ccc(CCN3CCN(c4cccc5sccc45)CC3)cc2[nH]1 [Compound of example 9, 7-(2-(4-(benzo[b]thiophen-4-yl)piperazin-1-yl)ethyl)quinolin-2(1H)-one]		0.972 nM	7.06 nM	95.6 nM
O=c1ccc2ccc(CCCCCN3CCN(c4cccc5sccc45)CC3)cc2[nH]1 [Compound of example 11, 7-(5-(4-(benzo[b]thiophen-4-yl)piperazin-1-yl)pentyl)quinolin-2(1H)-one]	209 nM	1.95 nM		
Cc1nc2c(OCc3ccccc3)cccn2c(=O)c1CCN1CCN(c2cccc3sccc23)CC1 [Compound of example 17, 3-(2-(4-(benzo[b]thiophen-4-yl)piperazin-1-yl)ethyl)-9-(benzyloxy)-2-methyl-4H-pyrido[1,2-a]pyrimidin-4-one hydrochloride]	350 nM			
O=C1CCc2cc(Cl)c(CCN3CCN(c4cccc5sccc45)CC3)cc2N1 [Compound of example 23, 7-(2-(4-(benzo[b]thiophen-4-yl)piperazin-1-yl)ethyl)-6-chloro-3,4-dihydroquinolin-2(1H)-one]	97.6 nM	463 nM	81.2 nM	
Cc1nc2ccc(CCCCCN3CCN(c4cccc5sccc45)CC3)cc2c(=O)[nH]1 [Compound of example 24, 6-(5-(4-(benzo[b]thiophen-4-yl)piperazin-1-yl)pentyl)-2-methylquinazolin-4(3H)-one]	781 nM	25.9 nM	50.7 nM	
O=c1ccc2ccc(CCN3CCN(c4cccc5c4CCS5)CC3)cc2[nH]1 [Compound of example 25, 7-(2-(4-(2,3-dihydrobenzo[b]thiophen-4-yl)piperazin-1-yl)ethyl)quinolin-2(1H)-one]		0.824 nM	85.1 nM	77.9 nM
O=c1[nH]cnc2ccc(CCCCCN3CCN(c4cccc5sccc45)CC3)cc12 [Compound of example 34, 6-(5-(4-(benzo[b]thiophen-4-yl)piperazin-1-yl)pentyl)quinazolin-4(3H)-one hydrochloride]		54 nM	324 nM	
O=c1[nH]c(CCN2CCN(c3cccc4sccc34)CC2)nc2ccccc12 [Compound of example 35, 2-(2-(4-(benzo[b]thiophen-4-yl)piperazin-1-yl)ethyl)quinazolin-4(3H)-one]	21.5 nM	41.9 nM	216 nM	
O=C1Cc2cc(CCN3CCC(c4cccc5sccc45)CC3)c(Cl)cc2N1 [Compound of example 37, 5-(2-(4-(benzo[b]thiophen-4-yl)piperidin-1-yl)ethyl)-6-chloroindolin-2-one]	28.1 nM	3.11 nM	51.9 nM	
O=C1Cc2cc(CCN3CCN(c4cncc5sccc45)CC3)c(Cl)cc2N1 [Compound of example 42, 6-chloro-5-(2-(4-(thieno[2,3-c]pyridin-4-yl)piperazin-1-yl)ethyl)indolin-2-one]	115 nM	100 nM	270 nM	
O=c1ccc2ccc(CCN3CCN(c4cncc5sccc45)CC3)cc2[nH]1 [Compound of example 43, 7-(2-(4-(thieno[2,3-c]pyridin-4-yl)piperazin-1-yl)ethyl)quinolin-2(1H)-one]	286 nM	1.23 nM	241 nM	
c1ccc2[nH]c(CN3CCN(c4cccc5sccc45)CC3)nc2c1 [Compound of example 58, 2-((4-(benzo[b]thiophen-4-yl)piperazin-1-yl)methyl)-1H-benzo[d]imidazole]	2170 nM	4.55 nM	101 nM	
O=C1COc2cc(F)c(CCN3CCN(c4cccc5sccc45)CC3)cc2N1 [Compound of example 66, 6-(2-(4-(benzo[b]thiophen-4-yl)piperazin-1-yl)ethyl)-7-fluoro-2H-benzo[b][1,4]oxazin-3(4H)-one]	81.5 nM	1.29 nM	61.7 nM	
N#Cc1ccc2[nH]cc(CCCCN3CCN(c4cccc5sccc45)CC3)c2c1 [Compound of example 70, 3-(4-(4-(benzo[b]thiophen-4-yl)piperazin-1-yl)butyl)-1H-indole-5-carbonitrile]	332 nM	9.7 nM	79.7 nM	
O=C1Cc2cc(CCN3CCN(c4cc(F)cc5sccc45)CC3)ccc2N1 [Compound of example 84, 5-(2-(4-(6-fluorobenzo[b]thiophen-4-yl)piperazin-1-yl)ethyl)indolin-2-one]	17.5 nM	0.235 nM	10.9 nM	

SMILES	IC50 [1, 4]	EC50 [2]	IC50 [3]	IC50 [1]
Cn1c(=O)[nH]c2ccc(CCN3CCN(c4cccc5sccc45)CC3)cc21 [Compound of example 86, 6-(2-(4-(benzo[b]thiophen-4-yl)piperazin-1-yl)ethyl)-1-methyl-1H-benzo[d]imidazol-2(3H)-one]	93.3 nM	21.6 nM	23.5 nM	
Cc1nc2n(c(=O)c1CCN1CCN(c3cc(F)cc4sccc34)CC1)CCCC2 [Compound of example 90, 3-(2-(4-(6-fluorobenzo[b]thiophen-4-yl)piperazin-1-yl)ethyl)-2-methyl-6,7,8,9-tetrahydro-4H-pyrido[1,2-a]pyrimidin-4-one]	13.6 nM	27.7 nM	10.4 nM	
O=C1COc2ccc(CCN3CCC(c4cccc5sccc45)CC3)cc2N1 [Compound of example 97, 6-(2-(4-(benzo[b]thiophen-4-yl)piperidin-1-yl)ethyl)-2H-benzo[b][1,4]oxazin-3(4H)-one]	173 nM	0.223 nM	6.81 nM	
O=C1CCc2cc(CCN3CCC(c4cccc5sccc45)CC3)ccc2N1 [Compound of example 98, 6-(2-(4-(benzo[b]thiophen-4-yl)piperidin-1-yl)ethyl)-3,4-dihydroquinolin-2(1H)-one]	185 nM	2.9 nM	12.4 nM	
O=C1Cc2cc(CCCCN3CCN(c4cccc5sc(F)cc45)CC3)ccc2N1 [Compound of example 101, 5-(4-(4-(2-fluorobenzo[b]thiophen-4-yl)piperazin-1-yl)butyl)indolin-2-one]	759 nM	16.8 nM	1.84 nM	
O=C1CCc2cc(CCCCN3CCC(c4cccc5sccc45)CC3)ccc2N1 [Compound of example 104, 6-(4-(4-(benzo[b]thiophen-4-yl)piperidin-1-yl)butyl)-3,4-dihydroquinolin-2(1H)-one]	106 nM	12.3 nM	98.8 nM	
COc1ccc2[nH]cc(CCN3CCN(c4cccc5sccc45)CC3)c2c1 [Compound of example 105, 3-(2-(4-(benzo[b]thiophen-4-yl)piperazin-1-yl)ethyl)-5-methoxy-1H-indole]				25.5 nM
COc1ccc2[nH]cc(CCCN3CCN(c4cccc5sccc45)CC3)c2c1 [Compound of example 106, 3-(3-(4-(benzo[b]thiophen-4-yl)piperazin-1-yl)propyl)-5-methoxy-1H-indole]	662 nM	10.4 nM	543 nM	
COc1ccc2[nH]cc(CCCCN3CCN(c4cccc5sccc45)CC3)c2c1 [Compound of example 107, 3-(4-(4-(benzo[b]thiophen-4-yl)piperazin-1-yl)butyl)-5-methoxy-1H-indole]	393 nM	7.95 nM	8.43 nM	
N#Cc1ccc2[nH]cc(CCCN3CCN(c4cccc5sccc45)CC3)c2c1 [Compound of example 108, 3-(3-(4-(benzo[b]thiophen-4-yl)piperazin-1-yl)propyl)-1H-indole-5-carbonitrile]	819 nM	44.9 nM	21.7 nM	
N#Cc1ccc2[nH]cc(CCN3CCN(c4cccc5sccc45)CC3)c2c1 [Compound of example 109, 3-(2-(4-(benzo[b]thiophen-4-yl)piperazin-1-yl)ethyl)-1H-indole-5-carbonitrile]	200 nM		243 nM	
CC(=O)n1cc(CCCCN2CCN(c3cccc4sccc34)CC2)c2cc(C#N)ccc21 [Compound of example 110, 1-acetyl-3-(4-(4-(benzo[b]thiophen-4-yl)piperazin-1-yl)butyl)-1H-indole-5-carbonitrile]	1760 nM	84 nM	57.6 nM	
O=C1CCc2cc(CCCCN3CCN(c4cccc5sccc45)CC3)ccc2N1 [Compound of example 111, 6-(4-(4-(benzo[b]thiophen-4-yl)piperazin-1-yl)butyl)-3,4-dihydroquinolin-2(1H)-one]	400 nM	29.5 nM	23.9 nM	
Nc1nc2cc(CCN3CCN(c4cccc5sccc45)CC3)ccc2s1 [Compound of example 116, 5-(2-(4-(benzo[b]thiophen-4-yl)piperazin-1-yl)ethyl)benzo[d]thiazol-2-amine]			5.97 nM	
Nc1nc2c(CCN3CCN(c4cccc5sccc45)CC3)cccc2s1 [Compound of example 120, 4-(2-(4-(benzo[b]thiophen-4-yl)piperazin-1-yl)ethyl)benzo[d]thiazol-2-amine]			229 nM	
c1cc(N2CCN(CCCCc3nnnn3C3CCCCC3)CC2)c2ccsc2c1 [Compound of example 138, 1-(benzo[b]thiophen-4-yl)-4-(4-(1-cyclohexyl-1H-tetrazol-5-yl)butyl)piperazine hydrochloride]			9.4 nM	
